In ChEMBL document CHEMBL3991601, “The target landscape of clinical kinase drugs” (Science, 2017):
Active and inactive are the calls of the source. Rule as the data show it, for most assays here: actives have a measured Kd and inactives only a lower limit.

Experiments:
[1] = target: cAMP-dependent protein kinase catalytic subunit beta (Homo sapiens, UniProt P22694)
[2] = target: T1, Serine/threonine-protein kinase TBK1 (Homo sapiens, UniProt Q9UHD2)
T1 sequence (Q9UHD2 whole entry): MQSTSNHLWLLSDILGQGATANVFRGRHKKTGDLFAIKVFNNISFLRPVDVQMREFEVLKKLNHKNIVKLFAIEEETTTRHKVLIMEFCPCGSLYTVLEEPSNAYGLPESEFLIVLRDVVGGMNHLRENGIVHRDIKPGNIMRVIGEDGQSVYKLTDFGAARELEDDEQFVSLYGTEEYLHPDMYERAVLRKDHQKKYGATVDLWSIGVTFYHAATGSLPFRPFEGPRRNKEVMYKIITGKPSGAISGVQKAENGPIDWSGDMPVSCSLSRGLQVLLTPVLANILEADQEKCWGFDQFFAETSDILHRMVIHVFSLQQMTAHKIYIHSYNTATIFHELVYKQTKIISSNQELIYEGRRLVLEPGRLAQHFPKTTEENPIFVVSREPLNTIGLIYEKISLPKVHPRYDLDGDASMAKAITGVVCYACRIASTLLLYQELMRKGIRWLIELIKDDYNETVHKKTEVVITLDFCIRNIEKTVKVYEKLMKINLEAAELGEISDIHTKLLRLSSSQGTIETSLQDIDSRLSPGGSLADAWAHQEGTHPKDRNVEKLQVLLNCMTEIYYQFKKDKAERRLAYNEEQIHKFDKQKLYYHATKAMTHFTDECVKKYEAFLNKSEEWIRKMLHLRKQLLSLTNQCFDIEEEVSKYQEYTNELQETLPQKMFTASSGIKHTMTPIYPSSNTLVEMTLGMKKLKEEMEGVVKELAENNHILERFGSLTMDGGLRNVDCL

[3] = target: T2, Ras-related protein Rab-10 (Homo sapiens, UniProt P61026)
T2 sequence (P61026 whole entry): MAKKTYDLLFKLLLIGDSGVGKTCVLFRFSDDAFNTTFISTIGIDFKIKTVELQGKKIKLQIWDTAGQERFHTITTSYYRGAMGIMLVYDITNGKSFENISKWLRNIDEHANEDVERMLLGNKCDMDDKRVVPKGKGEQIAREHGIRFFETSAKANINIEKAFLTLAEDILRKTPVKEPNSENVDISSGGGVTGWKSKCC

[4] = target: DnaJ homolog subfamily A member 1 (Homo sapiens, UniProt P31689)
[5] = target: T3, Dual specificity mitogen-activated protein kinase kinase 3 (Homo sapiens, UniProt P46734)
T3 sequence (P46734 whole entry): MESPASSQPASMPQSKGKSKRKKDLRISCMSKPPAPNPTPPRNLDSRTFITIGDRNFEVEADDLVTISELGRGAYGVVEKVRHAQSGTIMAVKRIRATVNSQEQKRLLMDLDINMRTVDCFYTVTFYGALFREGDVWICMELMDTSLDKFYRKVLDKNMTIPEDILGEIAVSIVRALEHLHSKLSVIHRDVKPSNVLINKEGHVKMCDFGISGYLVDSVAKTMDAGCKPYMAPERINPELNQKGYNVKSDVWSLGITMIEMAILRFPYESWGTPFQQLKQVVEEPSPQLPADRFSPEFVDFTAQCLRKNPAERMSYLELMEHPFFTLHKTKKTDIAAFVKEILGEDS

[6] = target: T4, Serine/threonine-protein kinase ULK3 (Homo sapiens, UniProt Q6PHR2)
T4 sequence (Q6PHR2 whole entry): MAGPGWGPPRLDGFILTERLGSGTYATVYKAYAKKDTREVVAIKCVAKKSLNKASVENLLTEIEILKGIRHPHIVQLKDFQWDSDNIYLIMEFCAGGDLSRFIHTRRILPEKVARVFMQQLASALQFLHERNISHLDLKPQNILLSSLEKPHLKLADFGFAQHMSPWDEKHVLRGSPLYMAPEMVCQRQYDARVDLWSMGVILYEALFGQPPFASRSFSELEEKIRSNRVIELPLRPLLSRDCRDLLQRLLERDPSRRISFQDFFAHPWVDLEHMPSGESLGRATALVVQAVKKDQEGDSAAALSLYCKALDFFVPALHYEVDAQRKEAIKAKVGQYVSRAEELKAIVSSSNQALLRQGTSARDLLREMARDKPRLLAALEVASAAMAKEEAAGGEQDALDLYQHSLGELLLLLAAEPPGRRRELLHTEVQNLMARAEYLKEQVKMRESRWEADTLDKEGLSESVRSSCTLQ

[7] = target: Maternal embryonic leucine zipper kinase (Homo sapiens, UniProt Q14680)
[8] = target: Macrophage-stimulating protein receptor (Homo sapiens, UniProt Q04912)
[9] = target: T5, ATP-dependent 6-phosphofructokinase, platelet type (Homo sapiens, UniProt Q01813)
T5 sequence (Q01813 whole entry): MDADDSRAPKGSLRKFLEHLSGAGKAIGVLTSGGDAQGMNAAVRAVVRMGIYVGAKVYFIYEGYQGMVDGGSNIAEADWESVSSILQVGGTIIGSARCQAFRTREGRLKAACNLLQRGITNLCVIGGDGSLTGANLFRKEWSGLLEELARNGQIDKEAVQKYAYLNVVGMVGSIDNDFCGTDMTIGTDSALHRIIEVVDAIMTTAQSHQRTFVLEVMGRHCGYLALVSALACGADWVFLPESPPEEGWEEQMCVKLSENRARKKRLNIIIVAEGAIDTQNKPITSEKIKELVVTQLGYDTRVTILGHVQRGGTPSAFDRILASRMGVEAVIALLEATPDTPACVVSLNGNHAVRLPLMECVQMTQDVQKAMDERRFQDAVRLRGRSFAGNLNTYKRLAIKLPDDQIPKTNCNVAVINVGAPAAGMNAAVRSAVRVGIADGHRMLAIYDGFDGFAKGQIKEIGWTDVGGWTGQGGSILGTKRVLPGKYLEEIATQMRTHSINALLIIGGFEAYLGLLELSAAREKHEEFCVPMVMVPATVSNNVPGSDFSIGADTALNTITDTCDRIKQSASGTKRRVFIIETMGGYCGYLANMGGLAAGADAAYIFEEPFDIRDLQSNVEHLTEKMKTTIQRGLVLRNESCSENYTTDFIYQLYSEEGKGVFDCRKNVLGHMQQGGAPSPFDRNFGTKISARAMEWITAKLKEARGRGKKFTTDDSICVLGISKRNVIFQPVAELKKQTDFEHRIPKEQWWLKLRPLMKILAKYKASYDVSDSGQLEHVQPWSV
Also: in the data inactive means no Kd found up to 30 µM.

Sequence of Macrophage-stimulating protein receptor (Q04912 25-304 limits assumed): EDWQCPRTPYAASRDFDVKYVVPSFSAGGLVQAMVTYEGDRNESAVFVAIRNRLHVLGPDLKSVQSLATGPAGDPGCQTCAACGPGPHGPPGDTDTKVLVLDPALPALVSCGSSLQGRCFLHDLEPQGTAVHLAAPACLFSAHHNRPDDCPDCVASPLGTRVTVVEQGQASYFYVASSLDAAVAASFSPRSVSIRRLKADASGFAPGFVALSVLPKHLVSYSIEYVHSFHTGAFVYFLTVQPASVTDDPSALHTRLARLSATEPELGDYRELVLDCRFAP
Sequence of Macrophage-stimulating protein receptor (Q04912 310-1400 limits assumed): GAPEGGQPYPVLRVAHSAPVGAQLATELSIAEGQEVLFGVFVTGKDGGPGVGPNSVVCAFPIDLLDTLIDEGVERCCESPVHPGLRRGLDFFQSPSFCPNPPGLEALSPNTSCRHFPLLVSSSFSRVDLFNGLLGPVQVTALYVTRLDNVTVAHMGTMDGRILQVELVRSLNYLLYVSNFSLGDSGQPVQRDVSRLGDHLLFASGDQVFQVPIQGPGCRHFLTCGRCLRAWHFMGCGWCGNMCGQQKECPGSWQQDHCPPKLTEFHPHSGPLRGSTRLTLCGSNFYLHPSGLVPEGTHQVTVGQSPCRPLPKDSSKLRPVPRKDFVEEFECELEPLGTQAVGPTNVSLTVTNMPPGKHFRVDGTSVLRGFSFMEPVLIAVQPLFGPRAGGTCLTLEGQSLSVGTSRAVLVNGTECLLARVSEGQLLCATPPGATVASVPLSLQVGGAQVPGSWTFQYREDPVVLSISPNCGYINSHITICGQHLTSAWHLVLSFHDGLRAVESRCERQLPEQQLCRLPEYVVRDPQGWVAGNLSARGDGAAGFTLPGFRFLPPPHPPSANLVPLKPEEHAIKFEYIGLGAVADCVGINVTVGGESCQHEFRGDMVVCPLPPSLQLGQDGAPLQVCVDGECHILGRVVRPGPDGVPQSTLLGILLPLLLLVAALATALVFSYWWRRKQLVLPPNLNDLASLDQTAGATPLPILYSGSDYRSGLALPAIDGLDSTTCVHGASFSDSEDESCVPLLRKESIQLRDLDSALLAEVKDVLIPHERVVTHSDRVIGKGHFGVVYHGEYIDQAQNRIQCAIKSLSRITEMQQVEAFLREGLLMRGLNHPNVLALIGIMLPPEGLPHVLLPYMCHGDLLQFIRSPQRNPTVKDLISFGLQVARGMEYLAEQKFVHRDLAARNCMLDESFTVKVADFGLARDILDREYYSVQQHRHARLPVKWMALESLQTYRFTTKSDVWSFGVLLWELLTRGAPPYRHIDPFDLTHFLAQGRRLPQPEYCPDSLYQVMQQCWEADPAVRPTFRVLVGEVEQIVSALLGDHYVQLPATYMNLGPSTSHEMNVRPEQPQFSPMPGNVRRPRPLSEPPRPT
Sequence of DnaJ homolog subfamily A member 1 (P31689 whole entry): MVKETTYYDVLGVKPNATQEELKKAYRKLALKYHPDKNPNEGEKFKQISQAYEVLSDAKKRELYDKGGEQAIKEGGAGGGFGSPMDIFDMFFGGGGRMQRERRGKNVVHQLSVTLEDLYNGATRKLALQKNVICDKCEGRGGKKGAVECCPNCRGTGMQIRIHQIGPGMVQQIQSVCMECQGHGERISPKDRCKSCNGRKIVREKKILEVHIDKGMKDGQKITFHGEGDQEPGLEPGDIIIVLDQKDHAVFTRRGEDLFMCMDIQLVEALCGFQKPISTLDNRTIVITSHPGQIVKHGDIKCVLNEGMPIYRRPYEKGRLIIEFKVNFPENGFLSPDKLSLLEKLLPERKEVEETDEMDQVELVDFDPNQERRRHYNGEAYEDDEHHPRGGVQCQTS
Sequence of Maternal embryonic leucine zipper kinase (Q14680 whole entry): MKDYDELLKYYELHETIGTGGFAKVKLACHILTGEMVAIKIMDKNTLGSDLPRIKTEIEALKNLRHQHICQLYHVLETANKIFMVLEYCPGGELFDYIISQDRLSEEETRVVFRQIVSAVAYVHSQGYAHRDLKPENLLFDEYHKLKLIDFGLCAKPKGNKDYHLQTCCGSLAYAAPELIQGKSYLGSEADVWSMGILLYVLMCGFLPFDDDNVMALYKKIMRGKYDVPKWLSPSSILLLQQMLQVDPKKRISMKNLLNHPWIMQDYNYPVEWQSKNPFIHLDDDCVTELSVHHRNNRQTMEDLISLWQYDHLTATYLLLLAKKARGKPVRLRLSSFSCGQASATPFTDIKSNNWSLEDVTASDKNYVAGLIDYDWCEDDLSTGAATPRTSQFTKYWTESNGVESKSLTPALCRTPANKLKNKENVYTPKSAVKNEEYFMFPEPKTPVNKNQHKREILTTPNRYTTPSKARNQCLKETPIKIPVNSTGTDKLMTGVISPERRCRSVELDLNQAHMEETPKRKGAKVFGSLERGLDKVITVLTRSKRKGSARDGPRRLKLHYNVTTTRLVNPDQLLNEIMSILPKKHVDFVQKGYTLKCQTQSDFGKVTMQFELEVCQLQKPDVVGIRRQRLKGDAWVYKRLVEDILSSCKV

Row | Kd [1] | Kd [2] | Kd [3] | Kd [4] | Kd [5] | Kd [6] | Kd [7] | Kd [8] | Kd [9] | Structure (SMILES)
1 | > 30 µM (inactive) | > 30 µM (inactive) | > 30 µM (inactive) | > 30 µM (inactive) | > 30 µM (inactive) | > 30 µM (inactive) | > 30 µM (inactive) | 2.13 µM (active) | > 30 µM (inactive) | COc1cc(Nc2ncc(F)c(Nc3ccc4c(n3)N(COP(=O)(O)O)C(=O)C(C)(C)O4)n2)cc(OC)c1OC [FOSTAMATINIB]
2 | > 30 µM (inactive) | > 30 µM (inactive) | > 30 µM (inactive) | > 30 µM (inactive) | > 30 µM (inactive) | > 30 µM (inactive) | > 30 µM (inactive) | > 30 µM (inactive) | > 30 µM (inactive) | CNC(=O)c1cc(COc2nnc(Nc3ccc(Cl)cc3)c3ccoc23)ccn1 [TELATINIB]
3 | > 30 µM (inactive) | > 30 µM (inactive) | > 30 µM (inactive) | > 30 µM (inactive) | > 30 µM (inactive) | > 30 µM (inactive) | 4.08 µM (active) | > 30 µM (inactive) | > 30 µM (inactive) | COc1ccc(-c2ccc3ncc4c(c3c2)n(-c2ccc(N3CCNCC3)c(C(F)(F)F)c2)c(=O)n4C)cn1 [BGT-226 FREE BASE]
4 | > 30 µM (inactive) | > 30 µM (inactive) | > 30 µM (inactive) | > 30 µM (inactive) | > 30 µM (inactive) | > 30 µM (inactive) | > 30 µM (inactive) | > 30 µM (inactive) | > 30 µM (inactive) | Cc1cc(Nc2nc(N[C@@H](C)c3ncc(F)cn3)ncc2Cl)n[nH]1 [AZD-1480]
5 | > 30 µM (inactive) | > 30 µM (inactive) | – | > 30 µM (inactive) | > 30 µM (inactive) | > 30 µM (inactive) | > 30 µM (inactive) | > 30 µM (inactive) | > 30 µM (inactive) | COc1cc2ncnc(Nc3ccc(F)c(Cl)c3)c2cc1NC(=O)/C=C/CN1CCCCC1 [DACOMITINIB ANHYDROUS]

The remaining lines, values behind:

Row | Structure (SMILES) | Kd [1] | Kd [2] | Kd [3] | Kd [4] | Kd [5] | Kd [6] | Kd [7] | Kd [8] | Kd [9]
6 | O=C(NC[C@H](O)CO)c1ccncc1Nc1ccc(I)cc1F [PIMASERTIB] | > 30 µM (inactive) | > 30 µM (inactive) | > 30 µM (inactive) | > 30 µM (inactive) | > 30 µM (inactive) | > 30 µM (inactive) | > 30 µM (inactive) | > 30 µM (inactive) | > 30 µM (inactive)
7 | O=C(NOC[C@H](O)CO)c1ccc(F)c(F)c1Nc1ccc(I)cc1F [MIRDAMETINIB] | > 30 µM (inactive) | > 30 µM (inactive) | > 30 µM (inactive) | > 30 µM (inactive) | > 30 µM (inactive) | > 30 µM (inactive) | > 30 µM (inactive) | > 30 µM (inactive) | > 30 µM (inactive)
8 | S=C(NCc1ccc2c(c1)OCO2)N1CCN(c2ncnc3c2oc2ccccc23)CC1 [AMUVATINIB] | > 30 µM (inactive) | > 30 µM (inactive) | > 30 µM (inactive) | > 30 µM (inactive) | > 30 µM (inactive) | > 30 µM (inactive) | > 30 µM (inactive) | > 30 µM (inactive) | > 30 µM (inactive)
9 | O=S(=O)(c1cccc2c(O)nccc12)N1CCCNCC1 [HYDROXYFASUDIL] | > 30 µM (inactive) | > 30 µM (inactive) | > 30 µM (inactive) | > 30 µM (inactive) | > 30 µM (inactive) | > 30 µM (inactive) | > 30 µM (inactive) | > 30 µM (inactive) | > 30 µM (inactive)
10 | C[C@@H]1COC(Nc2ccc3ncnc(Nc4ccc(OCc5nccs5)c(Cl)c4)c3c2)=N1 [VARLITINIB] | > 30 µM (inactive) | > 30 µM (inactive) | > 30 µM (inactive) | > 30 µM (inactive) | > 30 µM (inactive) | > 30 µM (inactive) | > 30 µM (inactive) | > 30 µM (inactive) | > 30 µM (inactive)
11 | CC[C@@](C)(Nc1ccnc(-c2c[nH]c3ncccc23)n1)C(=O)NCC(F)(F)F [DECERNOTINIB] | > 30 µM (inactive) | > 30 µM (inactive) | > 30 µM (inactive) | > 30 µM (inactive) | – | > 30 µM (inactive) | > 30 µM (inactive) | > 30 µM (inactive) | > 30 µM (inactive)
12 | COc1ccc2c(OCc3nnc4ccc(-c5ccccc5)nn34)ccnc2c1 [AMG-208] | > 30 µM (inactive) | > 30 µM (inactive) | > 30 µM (inactive) | > 30 µM (inactive) | > 30 µM (inactive) | > 30 µM (inactive) | > 30 µM (inactive) | > 30 µM (inactive) | –
13 | Cn1c(=O)c(F)c(Nc2ccc(I)cc2F)c2c(=O)n(C[C@@H](O)CO)cnc21 [TAK-733] | > 30 µM (inactive) | > 30 µM (inactive) | > 30 µM (inactive) | > 30 µM (inactive) | > 30 µM (inactive) | > 30 µM (inactive) | > 30 µM (inactive) | > 30 µM (inactive) | –
14 | C=CCN(/C=C1/C(=O)O[C@H](COC)[C@@]2(C)C1=C(O)C(=O)C1=C2[C@H](OC(C)=O)C[C@]2(C)C(=O)CC[C@@H]12)CC=C [SONOLISIB] | > 30 µM (inactive) | > 30 µM (inactive) | > 30 µM (inactive) | > 30 µM (inactive) | > 30 µM (inactive) | > 30 µM (inactive) | > 30 µM (inactive) | > 30 µM (inactive) | –
15 | Cc1cc(-c2cc(OC(=O)c3ccccc3)ccc2Cl)cc2nnc(Nc3ccc(OCCN4CCCC4)cc3)nc12 [TG100-801] | > 30 µM (inactive) | > 30 µM (inactive) | > 30 µM (inactive) | > 30 µM (inactive) | > 30 µM (inactive) | > 30 µM (inactive) | > 30 µM (inactive) | > 30 µM (inactive) | –
